Laboratory results as given in patent publication US20100183600A1, “RAF Inhibitors and Their Uses” (ARQULE, INC., priority 2008, published 2010).
≈ marks a conversion by molar mass, not a printed value.

Legend:
[1] = Equilibrium solubility at varying pH (shake flask); type: physicochemical; conditions: for solubility: 25 °C, thermodynamic from solid
Method: Solubility of the compounds was determined by the traditional shake flask method. Aliquots of solid compounds were mixed with an appropriate buffer of the desired pH and equilibrated by shaking at room temperature (˜25° C.) for 6-24 hours. Following aqueous buffers were used for the pH control: 0.1N HCl pH=1.2, 50 mM Lactate buffer pH=3.0, 50 mM Acetate buffer pH=5.0, and 100 mM Phosphate buffer pH 7.4. After equilibration, samples were filtered through a 0.45 um filter and analyzed by HPLC/UV against the calibration curves of standard solution.

[2] = tested on: RKO; assay: Cell growth inhibition assay (MTS); type: cell-based; conditions: Homo sapiens
Method: (§1) Compounds of the present invention have been tested for activity against a variety of cancer cell lines. The ability of compounds to inhibit cell growth in this assay is correlated with the reduction of dehydrogenase enzyme activity found in metabolically active cells.
(§2) Materials: A large variety of cancer cells from ATCC were maintained at 37° C., 5% CO2 in DMEM media supplemented with 10% fetal bovine serum, penicillin/streptomycin and fungizone (Invitrogen). NCM460 (Incell), a normal colon epithelial cell line, and human mammary epithelial cells (Cambrex) were maintained at 37° C., 5% CO2 in DMEM and HEBM media (Cambrex), respectively.
(§3) Methods: Test compounds were dissolved and diluted to 300× in DMSO then diluted 1:40 in DMEM. Cells were seeded into 96-well tissue culture plates at 1-5×10^3 per well and cultured at 37° C. for 24 h. Cells were incubated with test compounds for 72 hours followed by incubation with tetrazolium compound (3-(4,5-dimethylthiazol-2-yl)-5-(3-carboxymethoxyphenyl)-2-(4-sulfophenyl)-2H-tetrazolium, inner salt; MTS) and the electron coupling reagent, phenazine methosulfate (PMS) for 4 hr. […] The measurement of the absorbance of the formazan was assessed using an ENVISION™ (Perkin Elmer) microplate reader at 492 nm. The calculated IC50 value is the concentration of the test compound that causes a 50% decrease in the absorbance.

[3] = tested on: SK-MEL-28; assay: Cell growth inhibition assay (MTS); type: cell-based; conditions: Homo sapiens
Method: as §1, §2, §3

[4] = tested on: DLD-1; assay: Cell growth inhibition assay (MTS); type: cell-based; conditions: Homo sapiens
Method: as §1, §2, §3

[5] = target: T1, mutant B-RAF (Homo sapiens, UniProt P15056, V600E); assay: Measurement of RAF activity (MEK-1 phosphorylation); type: biochemical; conditions: 50 μM ATP, MEK-1 substrate; read-out: Mut-B-Raf IC50
T1 construct: purchased Upstate (Charlottesville, Va.)
T1 sequence (P15056 whole entry V600E): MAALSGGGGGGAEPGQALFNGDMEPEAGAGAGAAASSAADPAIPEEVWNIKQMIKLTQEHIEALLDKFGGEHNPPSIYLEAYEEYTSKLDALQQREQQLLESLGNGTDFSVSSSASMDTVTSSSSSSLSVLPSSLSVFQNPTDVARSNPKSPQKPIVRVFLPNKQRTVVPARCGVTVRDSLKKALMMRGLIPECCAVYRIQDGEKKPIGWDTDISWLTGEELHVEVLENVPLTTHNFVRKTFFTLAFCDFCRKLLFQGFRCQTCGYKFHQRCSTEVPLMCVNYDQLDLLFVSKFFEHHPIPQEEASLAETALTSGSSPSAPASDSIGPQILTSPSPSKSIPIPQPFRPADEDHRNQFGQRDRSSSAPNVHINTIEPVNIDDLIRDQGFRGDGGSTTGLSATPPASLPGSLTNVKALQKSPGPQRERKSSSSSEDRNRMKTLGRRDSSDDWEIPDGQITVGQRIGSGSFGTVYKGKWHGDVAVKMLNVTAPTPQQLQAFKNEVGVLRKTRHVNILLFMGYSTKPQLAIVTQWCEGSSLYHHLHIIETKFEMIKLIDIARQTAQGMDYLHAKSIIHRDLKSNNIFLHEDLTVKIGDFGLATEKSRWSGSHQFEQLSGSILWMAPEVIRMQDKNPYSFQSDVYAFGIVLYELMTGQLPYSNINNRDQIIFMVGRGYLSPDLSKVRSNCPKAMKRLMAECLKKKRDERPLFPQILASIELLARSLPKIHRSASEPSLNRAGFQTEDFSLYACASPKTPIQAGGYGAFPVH
Method: Materials: The RAF kinases and the anti-phospho MEK1/2 antibody were from Upstate (Charlottesville, Va.). The RAF substrate used was full length N-terminal GST-MEK-1, which was expressed in E. coli and purified in-house by HPLC. All proteins were aliquoted and stored at −80° C. Superblock™ in phosphate buffered saline (PBS) blocking reagent was form Pierce (cat. #37515). ATP was from Roche (cat. # 19035722). Alkaline Phosphatase-tagged goat anti-rabbit antibody was from Pierce (cat. # 31340).
Methods: All RAF biochemical assays were performed using an assay buffer containing 20 mM MOPS, 5 mM EGTA, 37.5 mM MgCl2, 1 mM DTT and 50 μM ATP. There was 6.25 ng/well mutant B-RAF and 7.5 ng/well MEK-1 in the final assay conditions. Compounds were serially diluted in assay buffer containing 1% DMSO and 20 μl of test compound at a concentration 3-fold more than the final concentration, and were added to a polypropylene V-well reaction plate. Vehicle control wells received buffer only with DMSO at equivalent concentrations to the test wells. […] These reaction plates were incubated at room temperature for 30 minutes. Capture of MEK-1 was initiated by transferring 50 μl of the reaction mixture to a Nunc Maxisorp™ microplate that is designed for non-specific protein capture. After 30 minute capture of MEK-1 at room temperature, this plate was washed with TBST (6×200 μL/well) to fully terminate the reaction. The plate was then blocked for 1 hour by the addition of 100 μl/well of Superblock™ in phosphate buffered saline (PBS) blocking reagent. Plate was again washed with TBST (6 times with 200 μl/well), followed by the addition of 70 μl/well of Upstate anti-phospho MEK ½ diluted 1:1000 in Pierce Superblock (PBS). After a 60 minute incubation, this plate was washed with TBST (6 times with 200 μl/well), and 70 μl of the secondary antibody (Pierce Alkaline Phosphatase tagged goat anti-rabbit) prepared at 1:4000 in Superblock, were added. After a 45 minute incubation at room temperature, the wells of the microplate were washed with TBST (6 times with 200 μl/well), and thereafter 100 μl/well of Attophos™ fluorescent alkaline phosphatase substrate was added according to the manufacturer's instructions (JBL Scientific). Fluorescence was read on a Perkin Elmer Envision multilabel reader, using the following filters: Excitation Filter: CFP430 nM, Emission Filter: Emission Filter 579 nM.

[6] = tested on: p-Erk (A375); assay: Cell-based phosphorylation assay with electroblotting readout; set-up: species or system human; conditions: Homo sapiens, A-375; A375 cells, 1 hr
Excerpt: Compounds of the present invention have been screened for their ability to inhibit all isoforms, both wild-type and mutant of RAF kinases (A-RAF, B-RAF and C-RAF) in general, and the mutant B-RAF (V600E) in particular in human cancer cells. A375 is a human melanoma cell line that harbors the most common B-RAF mutation-V600E found in human cancers. The ability of compounds to inhibit RAF kinases in this assay is correlated with the reduction of MEK and ERK phosphorylation, and is therefore a direct indicator of potential in vivo therapeutic activity.
Materials: A375 cells from ATCC were maintained at 37° C., 5% CO2 in DMEM media supplemented with 10% fetal bovine serum, penicillin/streptomycin and fungizone. (Invitrogen)
Methods: Test compounds were dissolved and diluted 1:1000 in DMSO. A375 cells were seeded in six-well tissue culture plates at 5-8×10^5 per well and cultured at 37° C. for 24 h. Cells were incubated with compounds for one hour before being lysed in EPage™ loading buffer (Invitrogen). Lysates were electrophoresed on 8% EPage™ gels and transferred to polyvinylidene difluoride membranes. After incubations with primary and secondary antibodies, the immunostained proteins were detected and quantitated by an Odyssey infrared imager (LI-COR). Analysis was performed by non-linear regression to generate a dose response curve. The calculated IC50 value was the concentration of the test compound that causes a 50% decrease in phospho-MEK and phospho-ERK levels. The primary antibodies used were anti-MEK (Stressgen), anti-ERK (BD Biosciences), anti-phospho-ERK and anti-phospho-MEK (Cell Signaling). The secondary antibodies used were IRDYE800 anti-rabbit, IRDYE 800 anti-mouse (Rockland), AlexaFluor680 anti-mouse and AlexaFluoro680 anti-rabbit (Invitrogen).
A375 cells were treated with 0, 12, 37, 111, 333 and 1000 nM of indicated compounds for 1 hr. The levels of Phospho-ERK and total-ERK were accessed by immunoblotting.

[7] = aqueous buffer (0.1N HCl), pH 1.2, simulated gastric fluid

For Cn1ccc(S(=O)(=O)N2CCC[C@@H](Nc3nccc(-c4c(-c5cccc(O)c5)nc5occn45)n3)C2)n1 [Compound 17, (R)-3-(5-(2-(1-(1-methyl-1H-pyrazol-3-ylsulfonyl)piperidin-3-ylamino)pyrimidin-4-yl)imidazo[2,1-b]oxazol-6-yl)phenol], the solubility ([1]; aqueous buffer (50 mM lactate buffer), aqueous buffer, pH 3.0) was 10 µg/mL (≈ 19.2 µM), the solubility [1, 7] was 1050 µg/mL (≈ 2020 µM) and the Aqueous solubility ([1]; pH 5.0) was “insoluble”. For the same molecule, the Aqueous solubility ([1]; pH 7.4) was “insoluble”, the GI50 ([2]; 72 hours) was 95 nM and the GI50 ([3]; SK-MEL-28, 72 hours) was 97 nM. The GI50 ([4]; DLD-1, 72 hours) was 12100 nM, the IC50 [5] was 8 nM and the EC50 [6] was 93 nM.

In the case of Cn1ccc(S(=O)(=O)N2CCC[C@@H](Nc3nccc(-c4c(-c5cccc(OCOP(=O)(O)O)c5)nc5occn45)n3)C2)n1 [Compound 19, (R)-(3-(5-(2-(1-(1-methyl-1H-pyrazol-3-ylsulfonyl)piperidin-3-ylamino)pyrimidin-4-yl)imidazo[2,1-b]oxazol-6-yl)phenoxy)methyl dihydrogen phosphate], the solubility ([1]; aqueous buffer (50 mM acetate buffer), aqueous buffer, pH 5.0) is reported as > 13000 µg/mL, the solubility ([1]; aqueous buffer (100 mM phosphate buffer), pH 7.4, aqueous buffer) is reported as > 300000 µg/mL and the solubility [1, 7] is reported as < 1300 µg/mL. For the same molecule, the “solubility in aqueous solution compared with compound 17” value ([1]; at or near biologically relevant pH) was “dramatically more soluble”, the GI50 ([2]; colon carcinoma) was 570 nM and the GI50 ([3]; SK-MEL-28, malignant melanoma) was 1700 nM. For the same molecule, the GI50 ([4]; DLD-1, colon) was 19000 nM, the IC50 [5] was 2920 nM and the EC50 [6] was 95 nM.
